From US7157092B1, “Acyl pseudodipeptides, preparation method and pharmaceutical compositions containing same” (Om Pharma, priority 1998, dated 2007)
Several values for one entry are separate records, joined by “and”; a condition that tells them apart may be missing. Equal values may be shown once.

Tested on: TT antigen
Assay: Subcutaneous immunization with TT antigen (tetanos toxoid): specific serum immunoglobulins (ELISA)
Format: in vivo, BALB/c mice
Conditions: for adjuvant effect on titer of IgG1 and IgG2a antibodies specifically raised against TT: after one or two injections, FIGS. 28, 29; for Titer of immunoglobulins specifically directed against TT of IgM subclass (number of animals and dilution): dilution giving signal at 490 nm greater than mean ± 3 SD of group A; for Immunoglobulins specifically raised against TT of IgG1 subclass / Immunoglobulins specifically raised against TT of IgG2a subclass: s.c. injections days 0 and 14, adjuvant 50 μg per injection, ± SD
Method: To this end, 40 BALB/c mice (females, 8 weeks-old at the beginning of treatment) are divided into 4 groups as follows:
Antigen: A TT stock solution is prepared at a concentration of 0.2 mg/ml in 0.9% NaCl.
The negative control consists of a 0.9% NaCl solution without antigen.
Antigen-Adjuvant mixture: Adjuvants are allowed to stand for 20 minutes at 37° C. before vortex treatment for 3 minutes. Then the antigen and (0.9%) NaCl are added as specified in the above Table, and the antigen/adjuvant mixture is vortexed briefly before placing it on a rotary stirrer for 15 minutes at room temperature, then the whole mixture is vortexed for 3 minutes.
Immunization regimen: Injections are scheduelled on days 0 and 14. The mixtures stated in the preceeding table are administered by subcutaeous route (75 μl on the side, 150 μl in total per animal). Blood sampling is scheduelled on days 14 and 28 (orbital puncture).
Assay for anti-TT immunoglobulins: The following serum Immunolglobulins which are specifically directed against TT are assayed in duplicate by ELISA: IgG1, IgG2a, and IgM. Microtiter plates (NUNC Immunoplate, Roskilde, DK) are incubated (overnight coating) at 4° C. together with 100 μl TT (0.5 μg) in bicarbonate buffer (pH 9.6). After washing with 0.5% Tween-20 (Merck Hohenbrunn, D), sera are diluted 50-, 200- and 800-fold (diluting solution: phosphate buffered saline (PBS)+1% bovine serum albumin (BSA, Sigma, St. Louis, Mo., USA)+0.02% Tween-20)). 100 μl of each dilute serum sample are added to the wells. Incubation lasts 45 minutes at 37° C.
After a second washing step, IgG1, IgG2a and IgM specifically directed to ovalbumin are incubated for 30 minutes at 37° C. together with 100 μl of anti-IgG1 antibodies-peroxydase conjugate (Serotec, Oxford, UK), IgG2a-peroxydase conjugate (Pharmingen, San Diego, Calif., USA) and IgM-biotin conjugate (Pharmingen, San Diego, Calif., USA), diluted beforehand in PBS/BSA/Tween buffer (250-, 1000-, 500-fold dilutions, respectively). For IgM, after an extra washing step, a 3rd incubation step is required (30 min. at 37° C.) with a 1:100 dilute solution of streptavidin-peroxydase conjugate (Dako, Glostrup, DK).
After the washing step, 100 μl of a phenylene 1,2-diamine solution (OPD, Merck, Darmstadt, GFR) are added to detect peroxydase-coupled anti-IgG1 and anti-IgG2 secondary antibodies (whereas for IgM, the reagent being used is 3′, 3′, 5′,5′-tetramethylbenzidine (TMB, Sigma, St. Louis, Mo., USA). After a 20 minute incubation period at room temperature (40 min. for TMB), the reaction is stopped by adding 100 μl of 2N H2SO4. Absorbance values are read at 490 nm with a Bio-Rad 3550 model plate reader
Results of each reading at 490 nm when measuring IgG1 and IgG2a are given in arbitrary units (A.U.) per ml. This is achieved by comparing each sample with a standard prepared from different dilutions of a sample pool collected from the group B at day 28 (animals injected with TT alone). As this term implies, the sample pool diluted 50-fold is at a concentration of 1000 A.U./ml. Individual results are then corrected for the corresponding dilution factor (50, 200, or 800 fold). Only the mean values of each group and the standard deviation (SD) are herein reported.
Regarding the assay of IgM specific for TT, since the “background noise” of the assay was too high, no clear cut difference could be found between group B (TT alone) and groups C and D (TT with adjuvant) by measuring specific IgM as previously done for IgG1 and IgG2a. Instead, specific IgM titer could be determined, using successive dilutions of each sample (rather than A.U. described before) and the result was reported, for each sample, as the highest dilution which gives an absorbance reading greater than mean absorbance±3 SD for group A (NaCl).

Molecule	adjuvant effect on titer of IgG1 and IgG2a antibodies specifically raised against TT	Titer of immunoglobulins specifically directed against TT of IgM subclass (number of animals and dilution) (Day 14)	Immunoglobulins specifically raised against TT of IgG1 subclass (Day 14) [Arbitrary units/ml]	Immunoglobulins specifically raised against TT of IgG2a subclass (Day 14) [Arbitrary units/ml]	Titer of immunoglobulins specifically directed against TT of IgM subclass (number of animals and dilution) (Day 28) [animals < 25]	Immunoglobulins specifically raised against TT of IgG1 subclass (Day 28) [Arbitrary units/ml]	Immunoglobulins specifically raised against TT of IgG2a subclass (Day 28) [Arbitrary units/ml]
CCCCCCCCCCCC(=O)O[C@H](CCCCCCCCCCC)CC(=O)NC(CCOP(=O)(O)O)C(=O)NCCCC(COP(=O)(O)O)NC(=O)C[C@H](O)CCCCCCCCCCC (stereo partly drawn) [OM-294-DP, 3-[(R)-3-dodecanoyloxytetradecanoylamino]-4-oxo-5-aza-9-[(R)-3-hydroxytetradecanoylamino]decan-1,10-diol 1, 10-bis(dihydrogenphosphate)]	often significantly increase the titer of IgG1 and IgG2a antibodies	–	–	–	–	–	–
TT: TT antigen (tetanos toxoid, Massachussetts Biologic Laboratoires), injected alone	–	9 animals < 25 and 1 animal < 50	2871 ± 1633	2547 ± 2539	10	34367 ± 15018	61387 ± 82269
CCCCCCCCCCCC(=O)O[C@H](CCCCCCCCCCC)CC(=O)NC(CCOP(=O)(O)O)C(=O)NCCCC(CO)NC(=O)C[C@H](O)CCCCCCCCCCC (stereo partly drawn) [OM-294-MP, 3-[(R)-3-dodecanoyloxytetradecanoylamino]-4-oxo-5-aza-9-[(R)-3-hydroxytetradecanoylamino]-decane-1,10-diol 1-dihydrogenphosphate]	often significantly increase the titer of IgG1 and IgG2a antibodies	–	–	–	–	–	–
